In ChEMBL document CHEMBL1158110, “Chaetopyranin, a benzaldehyde derivative, and other related metabolites from Chaetomium globosum, an endophytic fungus derived from the marine red alga Polysiphonia urceolata” (J Nat Prod, 2006) one finds IC50 data, which are given here for 4 molecules.

In brackets after ≈: the same amount, converted by molar mass.

In assay [1] the test system is Radical scavenging activity. The assay can be described thus: Antioxidant activity assessed as DPPH free radical scavenging activity. Format: functional. On the technique in general: The DPPH test is a chemical assay of radical scavenging.
Assay [2] concerns A549. The assay is described as follows: Cytotoxicity against human A549 cells. In kind it is functional, cell-based.
The test system of assay [3] is HMEC. The assay can be described thus: Cytotoxicity against HMEC. In kind it is cell-based. The following applies: Homo sapiens.
The subject of assay [4] is SMMC-7721. The assay is described as follows: Cytotoxicity against human SMMC7721 cells. In kind it is functional, cell-based.

The IC50 is the concentration at which inhibition is half-maximal. On to `CCC/C=C/c1cc2c(C=O)c(O)c(CC=C(C)C)cc2o1`, for which, in assay [1], the IC50 stood at 88 µg/mL (≈ 295 µM).
Take `CC(C)=CCc1cc2c(c(C=O)c1O)CCC(/C=C/C(C)O)O2` (configuration not stated) [CHAETOPYRANIN]: the IC50 in assay [2] amounted to 39.1 µg/mL (≈ 124 µM); in assay [3], 15.4 µg/mL (≈ 48.7 µM); in assay [4], 28.5 µg/mL (≈ 90.1 µM); in assay [1] it was 35 µg/mL (≈ 111 µM).
As to `C/C=C/CCCCc1c(O)cc(CC=C(C)C)c(O)c1C=O` [ISOTETRAHYDROAUROGLAUCIN], the IC50 in assay [1] was found to be 26 µg/mL (≈ 86 µM).
As for `COc1cc(O)c2c(c1)C(=O)c1c(O)c(C)cc(O)c1C2=O` [PARIETIN], the IC50 in assay [1] was determined as 62 µg/mL (≈ 206 µM).
